In PMC11765717, “In Vitro Insights into Bacteriocin-Mediated Modulation of Chicken Cecal Microbiota” (International Journal of Molecular Sciences, 2025):
In brackets after ≈: the same amount, converted by molar mass. Read-outs that look alike come from different tables or passages of the source. Positions of bridges follow the written chain, without caps; N, C: chain ends. Residues, ends and D or L forms follow the SMILES beside them.

Tests used:
S. enterica = system: S. enterica; design: method as in PMID 35543514; details: sensitive strain S. enterica; ref [63]; cited from earlier work
Source text: Table 1 Minimum inhibitory concentration (MIC) of the antimicrobial compounds tested (provided in µg/mL and in µmol/L) and residual activities over time in the cecal fermentation medium, after the introduction of the compounds at 25 (top) or 250 times (bottom) the minimal inhibitory concentration (MIC).

[1] = system: Salmonella enterica subsp. enterica serotype Newport ATCC 6962
chicken cecal microbiota [2] = test: Batch fermentation of chicken cecal microbiota, 16S rRNA gene sequencing; format: cell-based, broiler chickens; details: for Impact on genera / microbiota composition, in words: 24 h of culture; for Beta diversity (PCoA of weighted Unifrac), in words: 24 h of fermentation; for Effect on bacterial classes, in words: 12 h of cecal fermentation; for Abundance of Clostridia, in words: 25 vs 250 x MIC
chicken cecal microbiota [3] = test: Short-chain fatty acids in batch fermentation supernatant; format: cell-based, broiler chickens; details: 24 h; for Acetate production, in words: 250 times the MIC
[4] = system: Salmonella enterica subsp. enterica serotype Newport ATCC 6962; test: Residual activity in cecal fermentation medium, agar well diffusion; details: over the 24 h of fermentation; agar diffusion tests
[5] = system: Streptococcus pyogenes RBL4; test: as above; format: in vitro ADME; details: over the 24 h of fermentation; based on inhibition diameters
Description: Sterile Viande Levure (VL) medium (16 mL in 50 mL penicillin bottles), supplemented with Tween 80, bile salts, minerals, vitamins, porcine mucin (2.0 g/L), fructo-oligosaccharide (2.5 g/L), and citrus pectin (2.5 g/L), as described previously, and adjusted to pH 6 with 5 M NaOH, was inoculated with […] fecal slurry (10% inoculum, w/v). The antimicrobial compound was added in a volume of 1 mL to obtain 25 or 250 times the minimal inhibitory concentration (Table 1).
To ensure anaerobic conditions, the bottles were inoculated and sealed in an oxygen-free chamber. They were incubated at 41 °C and 80 rpm on an orbital shaker for up to 24 h. For each experimental treatment, samples were collected at 0, 12, and 24 h and kept at −80 °C until analysis.
The inhibitory activity of each antimicrobial agent was assessed qualitatively in terms of inhibition zones around agar wells. Briefly, 80 μL of sample was added to wells in pour plates (25 mL) seeded with 250 µL of overnight culture of indicator strain. Following 18 h of incubation at the appropriate temperature, inhibition diameters were measured. Photographs were taken using ChemiDoc XRS (Bio-Rad, Hercules, CA, USA).

C. perfringens = details: sensitive strain C. perfringens; ref [62]; cited from earlier work
L. ivanovii = system: L. ivanovii; design: method as in PMID 35170996; details: sensitive strain L. ivanovii; ref [64]; cited from earlier work
Listeria ivanovii HPB28 = test: Residual activity in cecal fermentation medium, agar well diffusion; details: over the 24 h of fermentation; agar diffusion tests

**Q.** For `O=C(O)c1cn(C2CC2)c2cc(N3CCNCC3)c(F)cc2c1=O` [Ciprofloxacin], which “MIC (µM)” value (S. enterica) is on record?
**A.** Its value is 0.60 µM (≈ 0.199 µg/mL).

**Q.** What about the “MIC (µg/mL)” value (S. enterica) of the same molecule?
**A.** The value was 0.19 µg/mL (≈ 0.573 µM).

**Q.** And the “Residual Activity 0 h” value [1]?
**A.** Its value is “+++ +++”.

**Q.** And the “Impact on genera / microbiota composition, in words” value (chicken cecal microbiota [2])?
**A.** The value was “impacted Gram-positive (Clostridia, Enterococcus and Streptococcus) as well as Gram-negative bacteria (Escherichia/Shigella and Gallibacterium)”.

**Q.** What about the “Genera Enterococcus, in words” value (chicken cecal microbiota [2]; after 24 h) of the same molecule?
**A.** The value was “reduced”.

**Q.** With `CC[C@H](C)[C@H](NC(=O)CNC(=O)[C@@H](NC(=O)[C@H](Cc1ccccc1)NC(=O)[C@H](Cc1ccc(O)cc1)NC(=O)[C@@H]1CCC(=O)NCC(=O)NCC(=O)N[C@@H](C)C(=O)NCC(=O)N[C@@H](Cc2cnc[nH]2)C(=O)N[C@@H](C(C)C)C(=O)N2CCC[C@H]2C(=O)N1)C(C)C)C(=O)NCC(=O)N[C@H](C(=O)N1CCC[C@H]1C(=O)N[C@H](C(=O)N[C@@H](CO)C(=O)N[C@@H](Cc1ccccc1)C(=O)N[C@@H](Cc1ccc(O)cc1)C(=O)NCC(=O)O)[C@@H](C)CC)[C@@H](C)O` [Microcin J25] (GGAGHVPEYFVGIGTPISFYG-OH; lactam N-8) as the molecule, how does the “Stability of inhibitory activity in batch fermentation, in words” value (from here on “Stability of inhibitory activity”) [1] read?
**A.** The value was “significant inhibitory activity at 24 h”.

**Q.** With `CO[C@H]1/C=C/O[C@@]2(C)Oc3c(C)c(O)c4c(O)c(c(/C=N/N5CCN(C)CC5)c(O)c4c3C2=O)NC(=O)/C(C)=C\C=C\[C@H](C)[C@H](O)[C@@H](C)[C@@H](O)[C@@H](C)[C@H](OC(C)=O)[C@@H]1C` [Rifampicin] as the molecule, how does the “MIC (µM)” value (S. enterica) read?
**A.** The value was 0.47 µM (≈ 0.387 µg/mL).

**Q.** What about the “MIC (µg/mL)” value (S. enterica) of the same molecule?
**A.** The value was 0.39 µg/mL (≈ 0.474 µM).

**Q.** And the “Acetate production, in words” value (chicken cecal microbiota [3])?
**A.** The value was “reached maximal ranges”.

**Q.** And the “Relative abundance of Bacteroidia” value (chicken cecal microbiota [2]; 24 h, concentrations not assigned)?
**A.** The value was 0.02.

**Q.** And the “Impact on genera / microbiota composition, in words” value (chicken cecal microbiota [2])?
**A.** The value was “mainly impacted the genera Bacteroides and Parabacteroides”.

**Q.** And the “Beta diversity (PCoA of weighted Unifrac), in words” value (chicken cecal microbiota [2])?
**A.** Its value is “tended to cluster separately”.

**Q.** What about the “Genera Enterococcus, in words” value (chicken cecal microbiota [2]; after 24 h, lowest concentration) of the same molecule?
**A.** The value was “reduced”.

**Q.** For `CN(C)[C@@H]1C(O)=C(C(N)=O)C(=O)[C@@]2(O)C(O)=C3C(=O)c4c(O)cccc4[C@@](C)(O)[C@H]3C[C@@H]12` [Tetracycline], which “Residual Activity 6 h” value [1] is on record?
**A.** The value was “+++ +++”.

**Q.** What about the “Stability of inhibitory activity” value [4] of the same molecule?
**A.** The value was “remained highly active”.

**Q.** And the “Impact on genera / microbiota composition, in words” value (chicken cecal microbiota [2])?
**A.** Its value is “mainly affected the Gram-negative bacteria Gallibacterium and the Gram-positive bacteria Phascolarctobacterium”.

**Q.** What about the “Genera Enterococcus, in words” value (chicken cecal microbiota [2]; after 24 h) of the same molecule?
**A.** The value was “reduced”.

**Q.** Which results are given for Bacitracin?
**A.** Stability of inhibitory activity in batch fermentation, in words [5]: least stable; Acetate production, in words (chicken cecal microbiota [3]): reached maximal ranges; Butyrate levels, in words (chicken cecal microbiota [3]; UHPLC-UV 210 nm): significant decrease; MIC (C. perfringens): 1.50 µg/mL; Effect on bacterial classes, in words (chicken cecal microbiota [2]): dose-dependent effects; Impact on genera / microbiota composition, in words (chicken cecal microbiota [2]): mainly impacted Streptococcus and Ruminococcus together with different Clostridia (Lachnoclostridium, Erysipelatoclostridium, and Oscillibacter), while promoting the genera Escherichia/Shigella

**Q.** With Colistin as the molecule, how does the “MIC (µM)” value (S. enterica) read?
**A.** Its value is 0.69 µM.

**Q.** What about the “MIC (µg/mL)” value (S. enterica) of the same molecule?
**A.** Its value is 0.80 µg/mL.

**Q.** What about the “Butyrate levels, in words” value (chicken cecal microbiota [3]; highest concentration) of the same molecule?
**A.** Its value is “tended to decrease”.

**Q.** What about the “Residual Activity 0 h” value [1] of the same molecule?
**A.** The value was “++ ++”.

**Q.** And the “Residual Activity 6 h” value [1]?
**A.** Its value is “++ ++”.

**Q.** What about the “Residual Activity 12 h” value [1] of the same molecule?
**A.** Its value is “++ ++”.

**Q.** What about the “Residual Activity 24 h” value [1] of the same molecule?
**A.** Its value is “++ ++”.

**Q.** And the “Relative abundance of Escherichia, in words” value (chicken cecal microbiota [2])?
**A.** Its value is “dropped”.

**Q.** And the “Abundance of Clostridia, in words” value (chicken cecal microbiota [2])?
**A.** The value was “dose-dependent decrease”.

**Q.** And the “Relative abundance of Gammaproteobacteria” value (chicken cecal microbiota [2]; 25× MIC)?
**A.** The value was 0.03.

**Q.** And the “Effect on bacterial classes, in words” value (chicken cecal microbiota [2])?
**A.** Its value is “dose-dependent effects”.

**Q.** And the “Impact on genera / microbiota composition, in words” value (chicken cecal microbiota [2])?
**A.** Its value is “strongly impaired Escherichia/Shigella together with other Gram-negative bacteria (Gallibacterium and Butyricimonas)”.

**Q.** What about the “Alpha diversity (Shannon entropy), in words” value (“Alpha diversity” for short) (chicken cecal microbiota [2]; after 12 h, compared to bacitracin, rifampicin, tetracycline, MccE492 and nisin) of the same molecule?
**A.** Its value is “lower alpha diversity”.

**Q.** And the “Alpha diversity” value (chicken cecal microbiota [2]; after 24 h)?
**A.** Its value is “lowest alpha diversity”.

**Q.** Which “Acetate production, in words” value (chicken cecal microbiota [3]) does the source give for Nisin Z here?
**A.** The value was “reached maximal ranges”.

**Q.** What about the “Butyrate levels, in words” value (chicken cecal microbiota [3]; lowest concentration) of the same molecule?
**A.** The value was “tended to decrease”.

**Q.** What about the “Abundance of Clostridia, in words” value (chicken cecal microbiota [2]) of the same molecule?
**A.** The value was “dose-dependent decrease”.

**Q.** And the “Effect on bacterial classes, in words” value (chicken cecal microbiota [2])?
**A.** The value was “dose-dependent effects”.

**Q.** What about the “Impact on genera / microbiota composition, in words” value (chicken cecal microbiota [2]) of the same molecule?
**A.** Its value is “had the most impact on microbiota composition”.

**Q.** And the “Beta diversity (PCoA of weighted Unifrac), in words” value (chicken cecal microbiota [2])?
**A.** Its value is “tended to cluster separately”.

**Q.** What about the “Genera Enterococcus, in words” value (chicken cecal microbiota [2]; after 24 h) of the same molecule?
**A.** Its value is “reduced”.

**Q.** What about the “Alpha diversity” value (chicken cecal microbiota [2]; t0, as compared to control) of the same molecule?
**A.** The value was “highest diversity”.

**Q.** What about the “MIC (µM)” value (L. ivanovii) of the same molecule?
**A.** Its value is 0.18 µM.

**Q.** And the “MIC (µg/mL)” value (L. ivanovii)?
**A.** The value was 1.56 µg/mL.

**Q.** With “Pediocin PA-1 (M31L) (KYYGNGVTCGKHSCSVDWGKATTCIINNGALAWATGGHQGNHKC; UniProt P29430 19-62, looked up, variant M31L) [44 aa linear peptide containing two disulfide bridges, M31L variant, prepared by solid-phase peptide synthesis]” as the molecule, how does the “Butyrate levels, in words” value (chicken cecal microbiota [3]; lowest concentration) read?
**A.** Its value is “tended to decrease”.

**Q.** And the “Stability of inhibitory activity” value (Listeria ivanovii HPB28)?
**A.** Its value is “weak activity”.

**Q.** What about the “Effect on bacterial classes, in words” value (chicken cecal microbiota [2]) of the same molecule?
**A.** Its value is “dose-dependent effects”.

**Q.** What about the “Impact on genera / microbiota composition, in words” value (chicken cecal microbiota [2]) of the same molecule?
**A.** Its value is “moderate effect”.

**Q.** What about the “Genera Enterococcus, in words” value (chicken cecal microbiota [2]; after 24 h, highest concentration) of the same molecule?
**A.** Its value is “reduced”.

B1: Microcin E492 (peptide, UniProt Q9Z4N4 16-99, looked up)
Microcin E492: GETDPNTQLLNDLGNNMAWGAALGAPGGLGSAALGAAGGALQTVGQGLIDHGPVNVPIPVLIGPSWNGSGSGYNSATSSSGSGS
notes: 84 aa siderophore peptide produced by Klebsiella pneumoniae, produced heterologously in E. coli MC4100
**Q.** Which “MIC (µM)” value (S. enterica) does the source give for B1 here?
**A.** Its value is 0.18 µM.

**Q.** What about the “MIC (µg/mL)” value (S. enterica) of the same molecule?
**A.** Its value is 1.56 µg/mL.

**Q.** And the “Impact on genera / microbiota composition, in words” value (chicken cecal microbiota [2])?
**A.** The value was “only minor effects”.

**Q.** What about the “Genera Enterococcus, in words” value (chicken cecal microbiota [2]; after 24 h) of the same molecule?
**A.** Its value is “reduced”.

**Q.** What about the “Alteration in the relative abundance of the identified taxa, in words” value (chicken cecal microbiota [2]; class level) of the same molecule?
**A.** Its value is “neither MccJ25 nor MccE492 induced a statistically significant alteration”.

**Q.** And the “Alpha diversity” value (chicken cecal microbiota [2]; t0, as compared to control)?
**A.** Its value is “highest diversity”.
